Among the data in ChEMBL document CHEMBL3627608, “Crystal structures of human RIP2 kinase catalytic domain complexed with ATP-competitive inhibitors: Foundations for understanding inhibitor selectivity” (Bioorg Med Chem, 2015) are inhibition values, retold here.

Assay [1] concerns the target Mitogen-activated protein kinase 14 (Homo sapiens) (UniProt Q16539). Nature of the assay: Inhibition of P38alpha (unknown origin) at 10 uM after 120 mins P33 radiolabeled kinase activity assay.
For assay [2], the target named is T1, Kinase suppressor of Ras 2 (Homo sapiens) (UniProt Q6VAB6).
T1 sequence (whole entry): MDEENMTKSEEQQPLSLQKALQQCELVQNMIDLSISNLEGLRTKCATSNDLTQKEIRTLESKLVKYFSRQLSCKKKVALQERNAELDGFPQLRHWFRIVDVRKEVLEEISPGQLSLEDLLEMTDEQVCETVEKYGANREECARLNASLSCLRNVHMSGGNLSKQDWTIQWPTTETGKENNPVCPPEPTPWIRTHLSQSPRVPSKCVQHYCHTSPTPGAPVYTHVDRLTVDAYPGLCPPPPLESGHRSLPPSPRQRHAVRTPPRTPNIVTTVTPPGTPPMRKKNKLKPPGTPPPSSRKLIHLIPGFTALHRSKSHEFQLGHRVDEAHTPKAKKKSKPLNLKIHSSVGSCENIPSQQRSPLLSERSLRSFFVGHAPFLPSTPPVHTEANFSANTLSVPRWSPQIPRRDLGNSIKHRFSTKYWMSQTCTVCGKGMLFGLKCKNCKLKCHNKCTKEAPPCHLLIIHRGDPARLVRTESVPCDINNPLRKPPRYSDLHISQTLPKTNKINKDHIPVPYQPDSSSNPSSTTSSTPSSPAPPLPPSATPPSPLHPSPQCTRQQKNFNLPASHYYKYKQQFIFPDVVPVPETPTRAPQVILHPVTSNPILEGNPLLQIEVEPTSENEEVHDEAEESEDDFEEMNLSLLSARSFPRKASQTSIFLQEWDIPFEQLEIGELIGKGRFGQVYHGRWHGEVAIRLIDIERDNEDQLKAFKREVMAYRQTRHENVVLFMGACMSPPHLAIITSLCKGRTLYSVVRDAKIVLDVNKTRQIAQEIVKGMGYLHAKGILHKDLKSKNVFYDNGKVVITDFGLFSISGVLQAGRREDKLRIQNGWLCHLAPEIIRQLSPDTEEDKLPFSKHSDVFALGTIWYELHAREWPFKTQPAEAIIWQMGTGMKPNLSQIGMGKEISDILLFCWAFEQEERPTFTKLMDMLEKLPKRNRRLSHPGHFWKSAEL
The experiment in a line: Inhibition of KSR2 (unknown origin) at 10 uM after 120 mins P33 radiolabeled kinase activity assay.

The target in assay [3] is High affinity nerve growth factor receptor (Homo sapiens) (UniProt P04629). The experiment in a line: Inhibition of TRKA (unknown origin) at 10 uM after 120 mins P33 radiolabeled kinase activity assay.
High affinity nerve growth factor receptor (Homo sapiens), sequence (P04629 33-796 limits assumed): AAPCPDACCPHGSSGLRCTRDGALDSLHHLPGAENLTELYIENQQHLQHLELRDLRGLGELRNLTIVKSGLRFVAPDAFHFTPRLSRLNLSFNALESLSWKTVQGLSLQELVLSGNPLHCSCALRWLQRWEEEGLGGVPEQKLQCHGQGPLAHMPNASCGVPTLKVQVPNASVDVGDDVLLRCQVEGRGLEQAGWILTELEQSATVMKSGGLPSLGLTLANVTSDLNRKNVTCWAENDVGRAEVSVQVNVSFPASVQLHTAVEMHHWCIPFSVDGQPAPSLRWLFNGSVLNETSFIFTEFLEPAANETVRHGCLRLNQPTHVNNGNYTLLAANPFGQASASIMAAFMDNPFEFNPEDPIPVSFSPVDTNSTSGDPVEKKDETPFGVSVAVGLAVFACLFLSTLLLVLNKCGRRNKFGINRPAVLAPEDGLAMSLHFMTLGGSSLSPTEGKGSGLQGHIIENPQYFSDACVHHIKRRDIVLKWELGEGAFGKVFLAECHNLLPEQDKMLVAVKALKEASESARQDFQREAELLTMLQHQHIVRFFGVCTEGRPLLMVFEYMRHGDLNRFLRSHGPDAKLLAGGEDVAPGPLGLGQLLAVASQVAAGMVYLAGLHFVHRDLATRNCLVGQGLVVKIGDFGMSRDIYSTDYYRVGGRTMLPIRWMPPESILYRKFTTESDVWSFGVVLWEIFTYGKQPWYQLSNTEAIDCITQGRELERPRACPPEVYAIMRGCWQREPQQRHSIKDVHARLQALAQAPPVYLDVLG
In assay [4] the target is T2, Protein kinase C iota type (Homo sapiens) (UniProt P41743).
T2 sequence (whole entry): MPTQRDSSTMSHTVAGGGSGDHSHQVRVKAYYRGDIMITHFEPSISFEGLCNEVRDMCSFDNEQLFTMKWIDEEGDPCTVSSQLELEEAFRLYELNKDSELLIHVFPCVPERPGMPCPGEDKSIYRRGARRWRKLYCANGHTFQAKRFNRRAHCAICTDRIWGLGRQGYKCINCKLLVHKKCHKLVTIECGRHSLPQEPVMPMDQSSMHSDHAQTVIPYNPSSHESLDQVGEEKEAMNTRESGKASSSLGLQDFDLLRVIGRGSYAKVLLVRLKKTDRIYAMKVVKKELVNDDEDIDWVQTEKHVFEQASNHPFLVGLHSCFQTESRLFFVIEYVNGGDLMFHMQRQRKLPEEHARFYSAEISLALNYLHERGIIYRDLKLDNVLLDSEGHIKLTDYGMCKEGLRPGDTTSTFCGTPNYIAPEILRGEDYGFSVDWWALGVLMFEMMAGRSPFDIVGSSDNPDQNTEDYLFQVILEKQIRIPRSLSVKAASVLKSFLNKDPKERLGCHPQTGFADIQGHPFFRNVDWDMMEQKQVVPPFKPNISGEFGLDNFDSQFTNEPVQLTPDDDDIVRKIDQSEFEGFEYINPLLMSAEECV
Nature of the assay: Inhibition of PKCiota (unknown origin) at 10 uM after 120 mins P33 radiolabeled kinase activity assay.

Assay [5] deals with T3, Serine/threonine-protein kinase D3 (Homo sapiens) (UniProt O94806).
T3 sequence (whole entry): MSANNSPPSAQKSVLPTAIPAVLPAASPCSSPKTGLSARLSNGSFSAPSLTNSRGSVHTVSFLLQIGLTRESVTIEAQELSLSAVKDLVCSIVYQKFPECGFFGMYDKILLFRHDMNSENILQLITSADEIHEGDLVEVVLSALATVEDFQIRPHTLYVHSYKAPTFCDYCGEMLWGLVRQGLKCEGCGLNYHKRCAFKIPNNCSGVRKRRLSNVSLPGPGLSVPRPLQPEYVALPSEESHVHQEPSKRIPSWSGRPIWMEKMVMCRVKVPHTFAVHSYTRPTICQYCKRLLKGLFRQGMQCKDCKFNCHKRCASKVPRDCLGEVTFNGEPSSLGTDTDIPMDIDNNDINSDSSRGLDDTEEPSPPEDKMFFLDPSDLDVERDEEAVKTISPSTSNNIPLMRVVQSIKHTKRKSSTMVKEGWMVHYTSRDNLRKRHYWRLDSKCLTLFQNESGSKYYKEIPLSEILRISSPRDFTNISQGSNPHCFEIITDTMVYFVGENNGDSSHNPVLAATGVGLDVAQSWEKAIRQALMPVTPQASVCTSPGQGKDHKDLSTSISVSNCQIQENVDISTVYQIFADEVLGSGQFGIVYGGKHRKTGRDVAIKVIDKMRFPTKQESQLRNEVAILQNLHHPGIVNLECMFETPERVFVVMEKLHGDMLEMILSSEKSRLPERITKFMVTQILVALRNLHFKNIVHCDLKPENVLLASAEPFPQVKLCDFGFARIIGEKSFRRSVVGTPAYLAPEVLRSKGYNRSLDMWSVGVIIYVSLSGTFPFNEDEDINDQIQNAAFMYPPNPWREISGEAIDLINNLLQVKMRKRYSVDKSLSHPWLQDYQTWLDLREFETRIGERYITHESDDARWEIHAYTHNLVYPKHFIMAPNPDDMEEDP
Nature of the assay: Inhibition of PKCnu (unknown origin) at 10 uM after 120 mins P33 radiolabeled kinase activity assay.

The target in assay [6] is T4, Aurora kinase C (Homo sapiens) (UniProt Q9UQB9).
T4 sequence (whole entry): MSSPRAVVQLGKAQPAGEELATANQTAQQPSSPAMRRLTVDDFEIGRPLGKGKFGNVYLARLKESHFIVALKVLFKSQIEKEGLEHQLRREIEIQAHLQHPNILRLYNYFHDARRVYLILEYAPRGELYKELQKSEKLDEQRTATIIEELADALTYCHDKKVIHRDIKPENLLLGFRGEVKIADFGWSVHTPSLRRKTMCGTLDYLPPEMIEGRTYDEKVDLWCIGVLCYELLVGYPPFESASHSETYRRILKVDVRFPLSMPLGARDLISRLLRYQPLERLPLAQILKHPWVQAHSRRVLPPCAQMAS
Nature of the assay: Inhibition of Aurora C (unknown origin) at 10 uM after 120 mins P33 radiolabeled kinase activity assay.

Structures are written as SMILES.

Mitogen-activated protein kinase 14 (Homo sapiens), sequence (Q16539 whole entry): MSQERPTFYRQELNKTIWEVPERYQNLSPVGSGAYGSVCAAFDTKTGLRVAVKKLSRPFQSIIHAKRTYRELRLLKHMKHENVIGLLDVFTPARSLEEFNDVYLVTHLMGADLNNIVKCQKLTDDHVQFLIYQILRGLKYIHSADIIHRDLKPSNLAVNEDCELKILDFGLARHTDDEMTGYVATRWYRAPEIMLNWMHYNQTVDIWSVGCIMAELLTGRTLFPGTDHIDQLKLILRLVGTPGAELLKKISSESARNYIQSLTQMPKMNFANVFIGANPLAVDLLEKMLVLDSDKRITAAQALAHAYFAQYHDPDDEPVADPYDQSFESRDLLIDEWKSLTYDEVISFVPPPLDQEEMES

As a reminder, the inhibition is how much of the control response was suppressed. A higher inhibition goes with a response far below the control. With `COCCNC(=O)c1ccc2c(c1)nc(-c1cnc(-c3ccc(Cl)cc3)[nH]1)n2CCOC`, the inhibition in assay [1] amounted to 62.3%; in assay [2], 3.38%; in assay [3], 5.11%; in assay [4], 5.69%; in assay [5], 9.76%; in assay [6], 3.77%.
Take `CC(C)(C)c1cc(NC(=O)Nc2ccc(Oc3ccncc3)cc2)no1`: the inhibition came to 98.9% in assay [1]; 3.41% in assay [2]; 97.2% in assay [3]; 4.69% in assay [4]; 11.4% in assay [5]; 15.8% in assay [6].
Take `CS(=O)(=O)c1cccc(Nc2nccc(-c3sc(N4CCOCC4)nc3-c3cccc(NS(=O)(=O)c4c(F)cccc4F)c3)n2)c1`: the inhibition was 18.8% in assay [1]; 1.08% in assay [2]; 39.8% in assay [3]; 9.85% in assay [4]; 99.9% in assay [5]; 11% in assay [6].
